Reference: patent publication US4104390A, “Thieno [2,3-c] and [3,2-c] pyridines” (Parcor, priority 1976, dated 1978)
Where two headings read alike, the source gives them in different places.

Key:
[1] = LD50, intravenous route, mice; details: mouse, in vivo
[2] = system: A.D.P.-induced blood-platelet aggregation; experiment: A.D.P.-induced blood-platelet aggregation; assay type: in vivo, Wistar rats; details: Rattus norvegicus, po; rats, 100 mg/kg orally, 3 hours after treatment, 10 μM A.D.P. solution, with respect to control group; read-out: Percent inhibition of blood-platelet aggregation, A.D.P.
Experimental: (§1) Blood is taken from the jugular vein of Wistar rats. From this citrated blood, and after centrifugation, is reconstituted a plasma containing 600,000 ± 20,000 blood-platelets per ml which is used in all aggregation determinations.
(§2) 0.4 ml plasma is placed in a siliconized tube provided with a magnet bar, also siliconized. The tube is introduced into an aggregometer coupled with an apparatus for recording optical density variations. When light transmission has reached a stable value, 0.5 ml of a solution containing 10 μM A.D.P. (Adenosine-Di-Phosphate) is introduced into the tube.
(§3) Blood-platelet aggregation causes an increase of light transmission followed by a decrease subsequent to the deaggregation phase.
(§4) The maximal optical density variation thus determined characterizes the intensity of the aggregation.
(§5) Different groups of 20 rats are used, each group being orally administered a test derivative at a dosage of 100 mg/kg.

[3] = system: collagen-induced blood-platelet aggregation; experiment: Collagen-induced blood-platelet aggregation; assay type: in vivo, Wistar rats; details: Rattus norvegicus, po; rats, 100 mg/kg orally, 3 hours after treatment, collagen (bovine tendon extract), with respect to control group; read-out: Percent inhibition of blood-platelet aggregation, Collagen
Experimental: as §1, §2, §3, §4
The A.D.P. solution is substituted with a collagen solution (bovine tendon extract).
as §5

[4] = system: carrageenin-induced localized edema; experiment: Carrageenin-induced localized edema method; assay type: in vivo; details: Rattus norvegicus, po, rats, 100 mg/kg orally at -1, 0, 1 and 2.5 hours
Experimental: (a) Carrageenin-induced localized edema method
0.1 ml of a 1% carrageenin solution is injected in the metatarsal flexor muscles of the right hind limb of rats at time 0. The animals of the treated group are additionally orally administered 100 mg/kg of the test derivative, respectively one hour prior to injection of the phlogogenic agent, simultaneously with said injection, and then 1 hour and 2.5 hours thereafter. The determinations effected by means of a ROCH micrometer at times 0, 1 hour, 2 hours, 3 hours and 5 hours after carrageenin administration make it possible to determine, as a function of time, the percent anti-inflammatory activity with respect to the reference group.

[5] = system: ovalbumen-induced systemic edema; experiment: Ovalbumen-induced systemic edema method; assay type: in vivo; details: Rattus norvegicus, po, rats, 100 mg/kg orally 1 hour before and with ovalbumen
Experimental: (b) Ovalbumen-induced systemic edema method
Simultaneous injection of 1 ml ovalbumen and 0.5 ml of a 1% aqueous Evans Blue solution is effected in rats. On the other hand, the animals of the treated group are administered orally 100 mg/kg of the test derivative one hour prior to ovalbumen administration and simultaneously with said administration. The intensity of the phenomenon thus induced is scored according to a scale from 1 to 5 depending on the progress of the inflammatory syndrome. The mean intensity of the edem and the percent decrease of the edema reaction with respect to the control group are thus determined as a function of time.

[6] = 1 hour after carrageenin, read-out: Percent anti-inflammatory activity after 1 hour
[7] = 2 hours after carrageenin, read-out: Percent anti-inflammatory activity after 2 hours
[8] = 3 hours after carrageenin, read-out: Percent anti-inflammatory activity after 3 hours
[9] = 5 hours after carrageenin, read-out: Percent anti-inflammatory activity after 5 hours
[10] = 2 hours after ovalbumen, read-out: Percent anti-inflammatory activity after 2 hours
[11] = 3 hours after ovalbumen, read-out: Percent anti-inflammatory activity after 3 hours

SMILES	LD50 at 24 h [1]	inhibition at 100 mg/kg [2]	inhibition at 100 mg/kg [3]	inhibition in vivo at 100 mg/kg [4, 6]	inhibition in vivo at 100 mg/kg [4, 7]	inhibition in vivo at 100 mg/kg [4, 8]	inhibition in vivo at 100 mg/kg [4, 9]	inhibition in vivo at 100 mg/kg [5, 10]	inhibition in vivo at 100 mg/kg [5, 11]
CC1NCc2sccc2C1c1ccccc1 (centres unmarked) [derivative n°1, 5-Methyl-4-phenyl-4,5,6,7-tetrahydro-thieno[2,3-c]pyridine]	63 mg/kg	64.9%	96.2%	37%	43%	45%	47%	47%	54%
c1ccc(C2CNCc3sccc32)cc1 (centres unmarked) [derivative n°3, 4-Phenyl-4,5,6,7-tetrahydro-thieno[2,3-c]pyridine]	69 mg/kg	64.1%	95.6%	41%	46%	50%	51%	52%	59%
COC(=O)c1ccccc1CN1Cc2sccc2C(c2ccccc2)C1 (centres unmarked) [derivative n°15, 6-o.Methoxycarbonylbenzyl-4-phenyl-4,5,6,7-tetrahydro-thieno[2,3-c]pyridine]		61.7%	92.3%	39%	47%	50%	54%	54%	62%
c1ccc(CN2Cc3sccc3C(c3ccccc3)C2)cc1 (centres unmarked) [derivative n°12, 6-Benzyl-4-phenyl-4,5,6,7-tetrahydro-thieno[2,3-c]pyridine]		63.7%	93.3%	47%	53%	57%	60%	47%	55%
CC1C(c2ccccc2)c2sccc2CN1Cc1ccccc1Cl (centres unmarked) [derivative n°23, 5-o.Chlorobenzyl-6-methyl-7-phenyl-4,5,6,7-tetrahydro-thieno[3,2-c]pyridine]		64.8%	94.5%	39%	44%	48%	52%	47%	54%
CN1Cc2sccc2C(c2ccccc2)C1 (centres unmarked) [derivative n°5, 6-Methyl-4-phenyl-4,5,6,7-tetrahydro-thieno[2,3-c]pyridine]	61 mg/kg	63.6%	93.8%	37%	45%	50%	51%	44%	51%
N#Cc1ccccc1CN1Cc2sccc2C(c2ccccc2)C1 (centres unmarked) [derivative n°8, 6-o.Cyanobenzyl-4-phenyl-4,5,6,7-tetrahydro-thieno[2,3-c]pyridine]		63.2%	92.5%	42%	49%	53%	56%	46%	54%
c1ccc(CCN2Cc3ccsc3C(c3ccccc3)C2)cc1 (centres unmarked) [derivative n°20, 5-Phenethyl-7-phenyl-4,5,6,7-tetrahydro-thieno[3,2-c]pyridine]		63.6%	94.2%	43%	48%	52%	55%	53%	61%
c1ccc(CN2Cc3ccsc3C(c3ccccc3)C2)cc1 (centres unmarked) [derivative n°24, 5-Benzyl-7-phenyl-4,5,6,7-tetrahydro-thieno[3,2-c]pyridine]		62.6%	93%	41%	47%	50%	53%	42%	47%
COc1ccc(C2CN(Cc3ccccc3Cl)Cc3sccc32)cc1 (centres unmarked) [derivative n°7, 6-o-Chlorobenzyl-4-p-methoxyphenyl-4,5,6,7-tetrahydro-thieno[2,3-c]pyridine]		61.5%	90.7%	44%	50%	54%	59%	52%	59%
COc1ccc(CN2Cc3ccsc3C(c3ccccc3)C2)cc1 (centres unmarked) [derivative n°27, 5-p.Methoxybenzyl-7-phenyl-4,5,6,7-tetrahydro-thieno[3,2-c]pyridine]		63%	92.4%	38%	45%	49%	52%	51%	56%
COc1cc(CN2Cc3sccc3C(c3ccccc3)C2)cc(OC)c1OC (centres unmarked) [derivative n°14, 4-Phenyl-6-(3,4,5-trimethoxy-benzyl)-4,5,6,7-tetrahydro-thieno[2,3-c]pyridine]		64.1%	93.9%	37%	44%	49%	54%	43%	52%
CC1C(c2ccccc2)c2sccc2CN1Cc1ccc([N+](=O)[O-])cc1 (centres unmarked) [derivative n°22, 6-Methyl-5-p.nitrobenzyl-7-phenyl-4,5,6,7-tetrahydro-thieno[3,2-c]pyridine]		63.4%	94.6%	41%	49%	53%	56%	50%	57%
